Test results taken from US20240132559A1, “COMPOSITIONS AND METHODS FOR MODULATING MYC EXPRESSION” (FLAGSHIP PIONEERING INNOVATIONS V, INC., priority 2020, published 2024).
“Also recorded” adds a separate entry of the source.

How the values were obtained:
[1] = system: Hep 3B cells; assay: Sorafenib dose response viability with bi-cistronic ZF9-MQ1_ZF3-KRAB (CellTiter-GLO); format: cell-based; details: Homo sapiens, Hep3B, 72 h
Protocol: (§1) In this example, the effect of bi-cistronic ZF9-MQ1_ZF3-KRAB on the small molecule sorafenib (multi-kinase inhibitor) efficacy in HCC cell lines was evaluated. Sorafenib is used as a standard of care in HCC and high MYC levels can predict sorafenib resistance. It was hypothesized that bi-cistronic ZF9-MQ1_ZF3-KRAB may re-sensitize HCC to sorafenib through its downregulation of MYC. Dose response assays were utilized to evaluate if bi-cistronic ZF9-MQ1_ZF3-KRAB treatment could decrease the IC50 of sorafenib.
(§2) To evaluate potential synergy between bi-cistronic ZF9-MQ1_ZF3-KRAB and sorafenib, Hep 3B or SK-HEP-1 cells were plated in 96 well plates at 10,000 cells per well. Cells were then treated with sorafenib at a dose range between 0.1 and 25 μM, with serial dilution of 1:2. Lipid mix carrying bi-cistronic ZF9-MQ1_ZF3-KRAB was then added to a subset of the wells at a dose of 0.1 or 0.6 μg/mL. A set of cells was treated with sorafenib alone to use as control. Following 72-hour treatment, cells were lysed with the CellTiter-GLO® reagent and luminescence was quantified using the Glo Max. Relative cell viability was calculated by averaging the untreated values and dividing each experimental luciferase value by that average.

[2] = system: SK-HEP-1 cells; assay: as above; format: cell-based; details: Homo sapiens, SK-HEP1, 72 h, SKHEP-1, 72-hour
Protocol: as §1, §2

[3] = system: subcutaneous H460 tumors; assay: H460 subcutaneous tumor model in nude mice; format: in vivo, mouse; details: 50 mg/kg daily
Protocol: Disease was induced in nude mice by the implantation of subcutaneous H460 tumor cells into the left flank. Treatment was initiated when mean tumor volume reached approximately 100-150 mm^3. Mice were divided into treatment groups so that mean tumor volume in each group were approximately equal. Tumors were treated with PBS (vehicle), sorafenib (standard of care), non-coding RNA formulated in MC3 LNPs, or ZF9-MQ1 mRNA formulated in MC3 LNPs. PBS, Non-coding RNA (SEQ ID NO: 198) LNP and ZF9-MQ1 LNP were dosed at 3 mg/kg administered every five days. Sorafenib was dosed daily at 50 mg/kg. The length and width of tumors were measured twice weekly. Tumor volumes were calculated as (width^2×length)/2.

[4] = system: SKHEP1 and Hep 3B cells; assay: IC50 of sorafenib or JQ1 in combination with bi-cistronic ZF9-MQ1_ZF3-KRAB; format: cell-based, human; details: for IC50 of sorafenib: in combination with 0.1 ug/ml bi-cistronic ZF9-MQ1_ZF3-KRAB; for IC50: Homo sapiens
[5] = system: MYC; assay: MYC mRNA expression by qPCR in human HCC cell lines after LNP transfection; format: cell-based; details: HepG2, Hep3B and SKHEP1
Protocol: In this example, dCas9-KRAB mRNA was delivered to human HCC cell lines (HepG2, Hep3B and SKHEP1) with individual sgRNA (Table 1 and FIG. 1A-B) targeting it to the CTCF motif (GD-28616), CTCF “anchor” site (GD-28859), or the MYC promoter (GD-28617). The effector mRNA and sgRNA were co-delivered using LNP delivery with SSOP. For controls, both (1) dCas9 (no effector) combined with sgRNA, and (2) untreated cells were used to assess changes. HCC cells were seeded in 96-well plates in growth media (5000 cell/well). LNP formulations (2-2.5 ug/ml) were then added to the cells to transfect the mRNA and sgRNA. All treatments were done in biological triplicate. Timepoints ranging from 24-168 hours were assessed for MYC expression and cell viability. RNA was isolated from four independent experiments using the RNeasy® plus 96-well Kit (Qiagen) following the Manufacture's protocol. RNA samples were retrotranscribed to cDNA using LunaScript® RT SuperMix Kit (NEB) and analyzed by quantitative PCR (qPCR) (in technical triplicates) using a MYC specific TaqMan™ primer/probe set assay with the TaqMan™ Fast Advanced Master Mix (Thermo Scientific). MYC expression was quantified relative to the expression of GAPDH reference genes using the ΔΔCt method. The untreated and dCas9(no-effector) samples were used as calibrators. […]

[6] = system: HCC cells (HepG2, Hep3B, SKHEP1, SNU-182, SNU-449); assay: Cell viability (CellTiter-GLO) of human HCC cell lines; format: cell-based; details: 72 and 168 hours
Excerpt: This example describes down-regulating MYC1 expression by targeting KRAB effector fused to zinc finger domains to the upstream region directly adjacent to the CTCF motif (GD-28859). In this example, zinc finger-directed KRAB effectors (ZF-KRAB effectors) were designed to bind the anchor site at the DNA region targeted by GD-28859 (FIG. 4A). 7 constructs (dCas-KRAB/GD-59, ZF1-KRAB, ZF2-KRAB, ZF3-KRAB, ZF4-KRAB, ZF5-KRAB, and ZF6-KRAB) were designed and screened in human HCC models (HepG2, Hep3B, SKHEP1). Negative controls for these experiments included untreated cells and dCas9-KRAB/GD-28859 was used as positive control. RNA was isolated from two independent experiments, each done in biological triplicate, using the Rneasy® Plus 96-well Kit (Qiagen) following the Manufacture's protocol. RNA samples were retrotranscribed to cDNA using LunaScript® RT SuperMix Kit (NEB) and analyzed by quantitative PCR (qPCR) (in technical triplicates) using a MYC specific Taqman primer/probe set assay with the TaqMan™ Fast Advanced Master Mix (Thermo Scientific). MYC expression was quantified relative to the expression of GAPDH reference genes using the ΔΔCt method, the untreated and dCas9(no-effector) samples were used as calibrators. Cell viability was assessed by ATP quantification using CellTiter-GLO® Luminescent Cell Viability Assay (Promega #G9241). […]

[7] = system: MYC super-enhancer and MYC promoter region; assay: Targeted bisulfite sequencing of super-enhancer and promoter regions in NCI-H2009; format: cell-based, human; details: guides 29833 and 29914, 72 hours
Protocol: The CRISPR-dCas9 system was modified by tethering it to epigenetic repressor: MQ1. These molecules modulate transcriptional repression methylating the CpG nucleotides of the DNA. The effector mRNA and super-enhancer guide RNAs (29833 and 29914) were co-delivered using LNP delivery with SSOP with mRNA delivery of GFP or a dCAS9-no effector construct (dCas9-NE) as negative controls. NCSLC cell line NCI-H2009 was seeded in a 6 well plates in growth media (˜100000 cells/well). LNP formulations (2.5 ug/ml) were then added to the cells to transfect the effector mRNA/guide RNA then incubated for 72 hours. DNA was isolated using Lucigen QuickExtract™ DNA extraction kit and methylated regions were determined using targeted bisulfite sequencing of the promoter and super-enhancer regions.

[8] = bi-cistronic ZF9-MQ1_ZF3-KRAB 0 μg/ml
[9] = bi-cistronic ZF9-MQ1_ZF3-KRAB 0.1 μg/ml
[10] = bi-cistronic ZF9-MQ1_ZF3-KRAB 0.6 μg/ml

| Molecule | IC50 [1, 8] | IC50 [1, 9] | IC50 [1, 10] | IC50 [2, 8] | IC50 [2, 9] | IC50 [2, 10] | average tumor volume at the study termination [3] | IC50 of sorafenib ([4]; Hep 3B) | IC50 ([4]; Hep3B, Hep 3B, in combination with 0.6 ug/ml bi-cistronic ZF9-MQ1_ZF3-KRAB) | IC50 ([4]; Hep3B, Hep 3B, sorafenib without bi-cistronic ZF9-MQ1_ZF3-KRAB) | IC50 ([4]; SK-HEP1, SKHEP1, in combination with 0.6 ug/ml bi-cistronic ZF9-MQ1_ZF3-KRAB) | IC50 ([4]; SK-HEP1, SKHEP1, sorafenib without bi-cistronic ZF9-MQ1_ZF3-KRAB) | IC50 of sorafenib ([4]; SKHEP1) | MYC mRNA down-regulation ([5]; 72 hours) | MYC expression down-regulation (in words) [5] | effect on viability (in words) ([6]; HepG2 and Hep3B) | effect on viability (in words) ([6]; SK-HEP-1) | methylation of the distal promoter region [7] |
| --- | --- | --- | --- | --- | --- | --- | --- | --- | --- | --- | --- | --- | --- | --- | --- | --- | --- | --- |
| CNC(=O)c1cc(Oc2ccc(NC(=O)Nc3ccc(Cl)c(C(F)(F)F)c3)cc2)ccn1 [sorafenib] | 4.4 µM | 4.25 µM | 2.9 µM | 12.3 µM | 12.3 µM | 10.7 µM | 752 mm^3 | did not change significantly | 2.9 µM | 4.4 µM | 10.7 µM | 12.3 µM | did not change significantly |  |  |  |  |  |
| dCas9-MQ1: dCas9 fused to MQ1, SEQ ID NO: 35 |  |  |  |  |  |  |  |  |  |  |  |  |  | 50-90% | significantly greater effect on MYC expression than any of the human dCas9-DNMTs examined or dCas9-KRAB; also recorded: down-regulated MYC expression | dramatically decreased viability | minimally affected | about 50% |
